Experimental data reported in US4831151A, “Antimicrobial imidazolium derivatives” (Hoffmann-La Roche Inc., priority 1985, dated 1989).
Where a name gives a salt, the structure may show the parent alone.

Tests used:
[1] = tested on: Litomosoides carinii; experiment: Filaricidal activity in cotton rats infected with Litomosoides carinii; format: in vivo, Litomosoides carinii in cotton rats (Sigmodon hispidus); settings: s.c., treated 14 weeks after infection, dissected 42 days after treatment; for ED90: Litomosoides carinii, sc, 1008 h, read-out: ED90 (dosage at which 90% of the worms removed from the pleural cavity are dead)
Experimental: (§1) The filaricidal activity of the compounds of formula I can be determined, for example, on cotton rats (Sigmodon hispidus) which have been infected with Litomosoides carinii. The infection with L. carinii is transmitted by the blood-sucking mite Bdellonyssus bacoti in which the development of the microfilaria to infectious larvae takes place. The cotton rats are infected by exposing them to bites of infected mites. 14 weeks after the infection groups of 2-4 animals are treated subcutaneously with the compound to be tested. 42 days after treatment with the compound to be tested the experimental animals are dissected, whereby the adult filaria are removed from the pleural cavity. Living and dead or encapsulated worms are separated from one another and weighed. The filaricidal activity is expressed as the percentage proportion of dead macrofilaria per treatment group. The ED90 is then determined by means of […] analysis using the values from different dosage groups. The ED90 is that dosage at which 90% of the worms removed from the pleural cavity are dead. In the following Table there are compiled the results which have been obtained in the previously described test with representative members of the class of compound defined by general formula I. Moreover, the Table contains data concerning the acute toxicity of some of these compounds in mg per kg in the case of single oral administration to mice.

[2] = Acute toxicity, single oral administration to mice; settings: mouse, in vivo, p.o.
Experimental: as §1

CCCc1n(N=Cc2ccc(N(C)C)cc2)cc[n+]1N=Cc1ccc(N(C)C)cc1.[Cl-] [1,3-bis[[p-(dimethylamino)benzylidene]amino]-2-propyl-imidazolium chloride]
ED90 [1]: < 0.25 mg/kg | LD50 [2]: 62.5 to 125 mg/kg

CCCCc1n(N=Cc2ccc(N(C)C)cc2)cc[n+]1N=Cc1ccc(N(C)C)cc1.[Cl-] [2-butyl-1,3-bis[[p-(dimethylamino)benzylidene]amino]imidazolium chloride]
ED90 [1]: < 0.25 mg/kg

CCc1n(N=Cc2ccc(N(CC)CC)cc2)cc[n+]1N=Cc1ccc(N(CC)CC)cc1 [1,3-bis[[p-diethylamino)benzylidene]amino]-2-ethyl-imidazolium chloride]
ED90 [1]: 0.75 mg/kg

CCc1n(N=Cc2ccc(N(C)C)cc2)cc[n+]1N=Cc1ccc(N(C)C)cc1.[Cl-] [1,3-bis[[p-(dimethyl-amino)benzylidene]amino]-2-ethylimidazolium chloride]
ED90 [1]: 0.4 mg/kg | LD50 [2]: 62.5 to 125 mg/kg

CCc1n(N=Cc2ccc(N(C)C)cc2)cc[n+]1N=Cc1ccc([N+](=O)[O-])cc1
ED90 [1]: < 1 mg/kg

CCc1n(N=Cc2ccc(N(C)C)cc2)cc[n+]1N=Cc1ccc(N(C)C)cc1 [1,3-bis[[(p-dimethylamino)benzylidene]amino]-2-ethylimidazolium acetate]
ED90 [1]: 0.25 mg/kg

Cc1n(N=Cc2ccc(N(C)C)cc2)cc[n+]1N=Cc1ccc(N(C)C)cc1 [drawing 12, 1,3-bis[[p-(dimethylamino)benzylidene]amino]-2-methylimidazolium salts]
ED90 (dosage at which 90% of the worms removed from the pleural cavity are dead) [1]: 1.6 mg/kg | LD50 [2]: 80 to 156 mg/kg

CCc1n(N=Cc2ccc(N(C)C)c3ccccc23)cc[n+]1N=Cc1ccc(N(C)C)c2ccccc12.[Cl-] [1,3-bis[[[4-(dimethylamino)-1-naphthyl]methylidene]amino]-2-ethyl-imidazolium chloride]
ED90 [1]: 3 mg/kg | LD50 [2]: 312 to 625 mg/kg

Cc1n(N=Cc2ccc(N(C)C)cc2)cc[n+]1N=Cc1ccc(N(C)C)cc1 [drawing 13, 1,3-bis[[(p-dimethylamino)benzylidene]amino]-2-methylimidazolium acetate]
ED90 [1]: 0.85 mg/kg
